The source of these data is patent US20170202783A1, “Amphiphilic Peptide Nanoparticles for Use as Hydrophobic Drug Carriers and Antibacterial Agents” (Northeastern University, priority 2014, published 2017).

SMILES strings stand for the structures. Where a SMILES comes first, the peptide text is derived from it. The star is where a group is joined. Stearoyl = CCCCCCCCCCCCCCCCCC(=O)*

Series [1] in a line: Solubility of curcumin in water. The settings on record: thermodynamic from solid. Type of series: physicochemical.
The subject of series [2] is MG-63 osteosarcoma cells. Nature of the series: Cellular uptake of curcumin by bright field and confocal microscopy. Type of series: cell-based, human. The settings on record: 20 μM curcumin. As to the method: (§1) A confocal laser scanning microscope and a bright field microscope were used for a qualitative study of the cellular uptake of curcumin from curcumin-loaded APNPs. First, 1 mL each of the osteosarcoma cell line and the healthy human osteoblast cell line were seeded on a 24-well plate at a density of 2×10^4 cells/mL. […] The cells were then rinsed with phosphate-buffered saline three times to remove the unabsorbed curcumin. The qualitative uptake of curcumin was then monitored by bright field microscopy. In another study, the nuclei of the cells were tracked by blue fluorescent DAPI staining using confocal microscopy (FIGS. 8A-8F), and the F-actin filaments of cells were stained with red fluorescent Rhodamine 6G. After 10 minutes of fixation by 10% formaldehyde solution and subsequent treatment with a 0.1% Triton X-100 solution for 10 minutes, the cells were stained with DAPI and Atto Rho6G phalloidin and observed using a Zeiss LSM710 laser scanning confocal microscope.

Series [3] has as its system healthy human osteoblasts. Described as above. It counts as cell-based. The settings on record: normal human osteoblast cells, 20 μM curcumin. The method, then: as §1
The conditions of series [4]: background statement; cited from earlier work.
Series [5] in a line: Zeta potential measurement (ZS90 Nanosizer). It counts as physicochemical. The settings on record: deionized water. As to the method:
The zeta potential of the nanoparticles was determined using 1 mL of each sample, each measured for ten preparations in triplicate.

The subject of series [6] is MG-63 osteosarcoma cells. Description: MTT cytotoxicity assay. Conditions: osteosarcoma cell line, highest concentration investigated, 24 hours, serum-free medium. The method, then: (§2) MG-63 osteosarcoma (CRL-1427) cells (American Type Culture Collection) were cultured in Eagle's Minimum Essential Medium supplemented with 10% fetal bovine serum and 1% penicillin/streptomycin, while healthy human osteoblasts (C-12760, PromoCell) were cultured in complete growth medium composed of osteoblast basal medium and osteoblast growth medium Supplement Mix. Both cell lines were incubated at 37° C. in a humidified incubator with an atmosphere of 95% […] and 5% CO2. Cells were used at population doubling numbers less than 3. Eagle's Minimum Essential Medium was purchased from the American Type Culture Collection (Manassas, Va., USA), and osteoblast basal medium and osteoblast growth medium Supplemental Mix were purchased from PromoCell (Heidelberg, Germany). Methyl-thiazolyl-tetrazolium (MTT) dye solution was purchased from Promega (Madison, Wis., USA). 4′,6-diamidino-2-phenylindole (DAPI), and Atto Rho6G phalloidin were supplied by Sigma-Aldrich (St Louis, Mo., USA).
(§3) 100 μL of the osteosarcoma and healthy osteoblast cell suspensions were seeded on a 96-well plate at 2×10^3 cells/well (cell density 6,154 cells/cm^2). […] Cells treated with medium only were used as a […] control. […]
(§4) The cells were treated for 24 hours. […] Cell viability was expressed as the ratio of cell density in each sample to the cell density in the control sample.
On the technique in general: Tetrazolium dyes change colour on reduction, which living cells bring about.

The test system of series [7] is healthy human osteoblasts. Description: MTT cytotoxicity assay. The settings on record: human osteoblast cell line, highest concentration investigated, 24 hours, serum-free medium. As to the method: as §2, §3, §4
A further series relates to Human dermal fibroblasts. The settings on record: 24 hours, MTS. As to the method:
Human dermal fibroblasts (Lonza, CC-2511) were plated at a density of 10,000 cells/cm^2 in a 96-well plate and maintained in DMEM culture medium supplemented with 10% fetal bovine serum (FBS, Hyclone) and 1% penicillin/streptomycin (P/S, Hyclone). APNPs were added to the culture medium to achieve the indicated final concentration of C18GR7RGDS, and the cells were incubated for 24 hours prior to determination of cell density by MTS assay.

The solubility is the dissolved amount per volume that the medium holds. Low values mean a poorly soluble substance, high ones a readily soluble substance. As for `COc1cc(/C=C/C(=O)CC(=O)/C=C/c2ccc(O)c(OC)c2)ccc1O` [curcumin, diferuloylmethane], the solubility in series [1] is < 0.1 mg/mL. Besides, the “curcumin uptake, confocal fluorescence” value (with MG-63 osteosarcoma cells [2]; in series [3]) was “neither cell line showed detectable fluorescence” in each case. The “curcumin uptake, bright field microscopy” value (in the series with MG-63 osteosarcoma cells [2] (2 hours); in series [3] (2 hours)) was “did not accumulate in the cytosol” throughout. Moreover, the solubility in water entry in series [4] is listed as “insoluble in water”.
`CCCCCCCCCCCCCCCCCC(=O)NCC(=O)N[C@@H](CCCNC(=N)N)C(=O)N[C@@H](CCCNC(=N)N)C(=O)N[C@@H](CCCNC(=N)N)C(=O)N[C@@H](CCCNC(=N)N)C(=O)N[C@@H](CCCNC(=N)N)C(=O)N[C@@H](CCCNC(=N)N)C(=O)N[C@@H](CCCNC(=N)N)C(=O)N[C@@H](CCCNC(=N)N)C(=O)NCC(=O)N[C@@H](CC(=O)O)C(=O)N[C@@H](CO)C(=O)O` [pure C18GR7RGDS APNPs] (Stearoyl-GRRRRRRRRGDS-OH): in series [5], the “stability in aqueous solution (indicated by zeta potential)” value is on record as “stable in aqueous solution”. The cytotoxicity entry (in the series on MG-63 osteosarcoma cells [6]; in series [7]) was “minor cytotoxicity” throughout. Besides, in the series with Human dermal fibroblasts, the “concentration resulting in significant loss of cell viability (reduced density of living cells)” value is ≥ 40 µM.
